SMILES strings stand for the structures. Like-named read-outs stand apart in the source and are kept apart here. Bridge positions count the residues as written; N and C are the ends. Square brackets hold non-standard residues; d marks the D form. Peptide text beside a SMILES is read from it. * marks the point of attachment. Val(Nα-amidino) = CC(C)[C@H](NC(=N)N)C(=O)*; Pro(4R-NH2) = N[C@H]1CN[C@H](C(=O)O)C1; Pen = CC(C)(S)[C@H](N)C(=O)O; dDab = NCC[C@@H](N)C(=O)O; Dab = NCC[C@H](N)C(=O)O

For data set [1], the system named is human red blood cells (hRBC). The data set is described as follows: Hemolysis of human red blood cells. The class given is cell-based. The conditions noted are these: red cells of human, 1 h. A digest of the protocol:
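Percent hemolysis is OD540 of peptide-treated supernatant relative to water-lysed cells. Each peptide was tested at 200 μg/mL against 20% (v/v) washed human erythrocytes. Incubation was 1 h at 37 °C, 300 rpm.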

Data set [2] relates to Escherichia coli ATCC 25922. The conditions noted are these: ATCC 25922. Summed up:
(§1)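 Peptides were made up as 1 mg/mL stocks in sterile water. Colonies in 0.85% saline were set to 0.5 McFarland, then diluted in cation-adjusted Mueller-Hinton II broth to about 5×10^5 CFU/mL. Inoculum was combined with two-fold serial peptide dilutions in water containing 0.002% (final) polysorbate 80.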

For data set [3], the system named is Escherichia coli MCR-1 Af 45. Summed up:
as §1

Data set [4] concerns Klebsiella pneumoniae SSI3010. The note with it: SSI3010. A digest of the protocol: as §1
Where [5] appears, read: Mueller-Hinton broth II, 18-20 hours at 35° C.

As for `CC[C@H](C)[C@H](NC(=O)[C@@H]1C[C@@H](O)CN1C(=O)[C@@H](NC(=O)CN(CCN)C(=O)[C@@H](N)CCCCN)C(C)C)C(=O)N[C@H](C(=O)N[C@@H](Cc1ccc(O)cc1)C(=O)N[C@@H]1C(=O)N[C@@H](CC(N)=O)C(=O)N[C@@H](CCCNC(=N)N)C(=O)N[C@@H](CCN)C(=O)N[C@@H]([C@@H](C)O)C(=O)N[C@H](CCN)C(=O)N[C@@H](CCCCN)C(=O)N[C@H](C(=O)N[C@@H](CCN)C(=O)N[C@@H](CCCNC(=N)N)C(=O)N[C@@H](Cc2ccc(O)cc2)C(=O)O)CSSC1(C)C)[C@@H](C)O` [Example 53, Lys-Ndab-Val-Hyp-Ile-Thr-Tyr-Pen-Asn-Arg-Dab-Thr-^DDab-Lys-Cys-Dab-Arg-Tyr] (HELM PEPTIDE1{K.[NCCN(CC(=O)[*:2])[*:1]].V.[Hyp].I.T.Y.[Pen].N.R.[Dab].T.[NCC[C@@H](N[*:1])C(=O)[*:2]].K.C.[Dab].R.Y}$PEPTIDE1,PEPTIDE1,8:R3-15:R3$$$V2.0), the “Hemolysis at 0.2 g/L” value in data set [1] is listed as 0%. Besides, the “Escherichia coli ATCC 25922 MIC” value in data set [2] stood at 0.0625 µg/mL. In addition, in data set [3] (MCR-1 Af 45), the “Escherichia coli MCR-1 Af 45 MIC” value is at most 0.03125 µg/mL. The “Klebsiella pneumoniae SSI3010 MIC” value in data set [4] was 0.0625 µg/mL.

Take `CC[C@H](C)[C@H](NC(=O)[C@@H]1C[C@@H](N)CN1C(=O)[C@@H](NC(=N)N)C(C)C)C(=O)N[C@H](C(=O)N[C@@H](Cc1ccc(O)cc1)C(=O)N[C@@H]1C(=O)N[C@@H](CC(N)=O)C(=O)N[C@@H](CCCNC(=N)N)C(=O)N[C@@H](CCN)C(=O)N[C@@H]([C@@H](C)O)C(=O)N[C@H](CCN)C(=O)N[C@@H](CCCCN)C(=O)N[C@H](C(=O)N[C@@H](CCN)C(=O)N[C@@H](CCCNC(=N)N)C(=O)N[C@@H](Cc2ccc(O)cc2)C(=O)O)CSSC1(C)C)[C@@H](C)O` [Example 190] ({Val(Nα-amidino)}-[Pro(4R-NH2)]ITY[Pen]NR[Dab]T[dDab]KC[Dab]RY-OH; disulfide 5-12): the “Hemolysis at 0.2 g/L” value in data set [1] came out at 0%. Moreover, in data set [2], the “Escherichia coli ATCC 25922 MIC” value was 0.0625 µg/mL. Further, in data set [3] (setting [5]), the “Escherichia coli MCR-1 Af 45 MIC” value turned out to be 0.0625 µg/mL. Also, the “Klebsiella pneumoniae SSI3010 MIC” value in data set [4] was 0.125 µg/mL.

Turning to `CC[C@H](C)[C@H](NC(=O)[C@@H](NC(=O)[C@@H]1CCCN1C(=O)[C@@H](NC(=O)[C@@H]1CCCN1C(=O)CN(C)C(=O)[C@@H](N)CCCCN)C(C)C)[C@@H](C)CC)C(=O)N[C@@H](Cc1ccc(O)cc1)C(=O)N[C@@H]1C(=O)N[C@@H](CC(N)=O)C(=O)N[C@@H](CCCNC(=N)N)C(=O)N[C@@H](CCN)C(=O)N[C@@H]([C@@H](C)O)C(=O)N[C@H](CCN)C(=O)N[C@@H](CCCCN)C(=O)N[C@H](C(=O)N[C@@H](CCN)C(=O)N[C@@H](CCCNC(=N)N)C(=O)N[C@@H](Cc2ccc(O)cc2)C(=O)O)CSSC1(C)C` [Example 92, Lys-Sar-Pro-Val-Pro-Ile-Ile-Tyr-Pen-Asn-Arg-Dab-Thr-^DDab-Lys-Cys-Dab-Arg-Tyr] (HELM PEPTIDE1{K.[Sar].P.V.P.I.I.Y.[Pen].N.R.[Dab].T.[NCC[C@@H](N[*:1])C(=O)[*:2]].K.C.[Dab].R.Y}$PEPTIDE1,PEPTIDE1,9:R3-16:R3$$$V2.0), the “Hemolysis at 0.2 g/L” value in data set [1] stood at 0%. For the same compound, in data set [2], the “Escherichia coli ATCC 25922 MIC” value came out at 0.0625 µg/mL. Moreover, the “Escherichia coli MCR-1 Af 45 MIC” value in data set [3] (MCR-1 Af 45) was at most 0.03125 µg/mL. Also, the “Klebsiella pneumoniae SSI3010 MIC” value in data set [4] amounted to 0.0625 µg/mL.

`CC[C@H](C)[C@H](NC(=O)[C@@H]1C[C@@H](N)CN1C(=O)[C@@H](NC(=O)[C@@H]1C[C@@H](O)CN1C(=O)[C@@H](N)CCCCN)C(C)C)C(=O)N[C@H](C(=O)N[C@@H](Cc1ccc(O)cc1)C(=O)N[C@@H]1C(=O)N[C@@H](CC(N)=O)C(=O)N[C@@H](CCCNC(=N)N)C(=O)N[C@@H](CCN)C(=O)N[C@@H]([C@@H](C)O)C(=O)N[C@H](CCN)C(=O)N[C@@H](CCCCN)C(=O)N[C@H](C(=O)N[C@@H](Cc2ccc(O)cc2)C(=O)N[C@@H](CCCNC(=N)N)C(=O)N[C@@H](Cc2ccc(O)cc2)C(=O)O)CSSC1(C)C)[C@@H](C)O` [Example 57, Lys-Hyp-Val-Pro((4R)NH2)-Ile-Thr-Tyr-Pen-Asn-Arg-Dab-Thr-^DDab-Lys-Cys-Tyr-Arg-Tyr] (HELM PEPTIDE1{K.[Hyp].V.[N[C@@H]1C[C@@H](C(=O)[*:2])N([*:1])C1].I.T.Y.[Pen].N.R.[Dab].T.[NCC[C@@H](N[*:1])C(=O)[*:2]].K.C.Y.R.Y}$PEPTIDE1,PEPTIDE1,8:R3-15:R3$$$V2.0): the “Hemolysis at 0.2 g/L” value in data set [1] came to 0%. Further, the “Escherichia coli ATCC 25922 MIC” value in data set [2] stood at 0.25 µg/mL. For the same compound, the “Escherichia coli MCR-1 Af 45 MIC” value in data set [3] (MCR-1 Af 45) turned out to be 0.125 µg/mL. Further, the “Klebsiella pneumoniae SSI3010 MIC” value in data set [4] came out at 0.25 µg/mL.

As to `CC[C@H](C)[C@H](NC(=O)[C@@H]1C[C@@H](O)CN1C(=O)[C@@H](N)C(C)C)C(=O)N[C@H](C(=O)N[C@@H](Cc1ccc(O)cc1)C(=O)N[C@@H]1C(=O)N[C@@H]([C@@H](C)O)C(=O)N[C@@H](CCCNC(=N)N)C(=O)N[C@@H](CCN)C(=O)N[C@@H]([C@@H](C)O)C(=O)N[C@H](CCN)C(=O)N[C@@H](CCCCN)C(=O)N[C@H](C(=O)N[C@@H](CCN)C(=O)N[C@@H](CCCNC(=N)N)C(=O)N[C@@H](Cc2ccc(O)cc2)C(=O)O)CSSC1(C)C)[C@@H](C)O` [Example 165] (HELM PEPTIDE1{V.[Hyp].I.T.Y.[Pen].T.R.[Dab].T.[NCC[C@@H](N[*:1])C(=O)[*:2]].K.C.[Dab].R.Y}$PEPTIDE1,PEPTIDE1,6:R3-13:R3$$$V2.0), the “Hemolysis at 0.2 g/L” value in data set [1] stood at 0%. Moreover, in data set [2], the “Escherichia coli ATCC 25922 MIC” value was determined as 0.125 µg/mL. Moreover, the “Escherichia coli MCR-1 Af 45 MIC” value in data set [3] (setting [5]) is 0.125 µg/mL. Further, the “Klebsiella pneumoniae SSI3010 MIC” value in data set [4] was determined as 0.5 µg/mL.

Regarding `CC[C@H](C)[C@H](NC(=O)[C@@H](NC(=O)[C@@H]1C[C@@H](N)CN1C(=O)[C@@H](NC(=O)[C@@H]1CCCN1)C(C)C)[C@@H](C)CC)C(=O)N[C@@H](Cc1ccc(O)cc1)C(=O)N[C@@H]1C(=O)N[C@@H](CC(N)=O)C(=O)N[C@@H](CCCNC(=N)N)C(=O)N[C@@H](CCN)C(=O)N[C@@H]([C@@H](C)O)C(=O)N[C@H](CCN)C(=O)N[C@@H](CCCCN)C(=O)N[C@H](C(=O)N[C@@H](CCC(N)=O)C(=O)N[C@@H](CCCNC(=N)N)C(=O)N[C@@H](CC2CCCCC2)C(=O)O)CSSC1(C)C` [Example 17, Pro-Val-Pro((4R)NH2)-Ile-Ile-Tyr-Pen-Asn-Arg-Dab-Thr-^DDab-Lys-Cys-Gln-Arg-Cha] (HELM PEPTIDE1{P.V.[N[C@@H]1C[C@@H](C(=O)[*:2])N([*:1])C1].I.I.Y.[Pen].N.R.[Dab].T.[NCC[C@@H](N[*:1])C(=O)[*:2]].K.C.Q.R.[Cha]}$PEPTIDE1,PEPTIDE1,7:R3-14:R3$$$V2.0), in data set [1], the “Hemolysis at 0.2 g/L” value was found to be 0%. Moreover, the “Escherichia coli ATCC 25922 MIC” value in data set [2] came out at 0.125 µg/mL. In data set [3] (MCR-1 Af 45), the “Escherichia coli MCR-1 Af 45 MIC” value is 0.125 µg/mL. Besides, the “Klebsiella pneumoniae SSI3010 MIC” value in data set [4] stood at 0.25 µg/mL.

`CC[C@H](C)[C@H](NC(=O)[C@@H](NC(=O)[C@@H]1CCCN1C(=O)[C@@H](NC(=O)[C@@H]1C[C@@H](N)CN1C(=O)[C@H](CCCCN)NC(=O)[C@@H](N)CCCCN)C(C)C)[C@@H](C)CC)C(=O)N[C@@H](Cc1ccc(O)cc1)C(=O)N[C@H]1CC(=O)NCC[C@@H](C(=O)N[C@@H](CCN)C(=O)N[C@@H](CCCNC(=N)N)C(=O)N[C@@H](Cc2ccc(O)cc2)C(=O)O)NC(=O)[C@H](CCCCN)NC(=O)[C@@H](CCN)NC(=O)[C@H]([C@@H](C)O)NC(=O)[C@H](CCN)NC(=O)[C@H](CCCNC(=N)N)NC(=O)[C@H](CC(N)=O)NC1=O` [Example 132] (HELM PEPTIDE1{K.K.[N[C@@H]1C[C@@H](C(=O)[*:2])N([*:1])C1].V.P.I.I.Y.D.N.R.[Dab].T.[NCC[C@@H](N[*:1])C(=O)[*:2]].K.[Dab].[Dab].R.Y}$PEPTIDE1,PEPTIDE1,9:R3-16:R3$$$V2.0): the “Hemolysis at 0.2 g/L” value in data set [1] came to 0%. In data set [2], the “Escherichia coli ATCC 25922 MIC” value came to 0.0625 µg/mL. For the same compound, the “Escherichia coli MCR-1 Af 45 MIC” value in data set [3] (MCR-1 Af 45) turned out to be 0.0625 µg/mL. The “Klebsiella pneumoniae SSI3010 MIC” value in data set [4] worked out at 0.0625 µg/mL.

As to `CC[C@H](C)[C@H](NC(=O)[C@@H](NC(=O)[C@@H]1CCCN1C(=O)[C@@H](NC(=O)[C@@H]1CCCN1C(=O)[C@H](CCCCN)NC(=O)CNCCN)C(C)C)[C@@H](C)CC)C(=O)N[C@@H](Cc1ccc(O)cc1)C(=O)N[C@H]1CSSC[C@@H](C(=O)N[C@@H](CCN)C(=O)N[C@@H](CCCNC(=N)N)C(=O)N[C@@H](Cc2ccc(O)cc2)C(=O)O)NC(=O)[C@H](CCCCN)NC(=O)[C@@H](CCN)NC(=O)[C@H]([C@@H](C)O)NC(=O)[C@H](CCN)NC(=O)[C@H](CCCNC(=N)N)NC(=O)[C@H](CC(N)=O)NC1=O` [Example 96] (HELM PEPTIDE1{[NCCNCC(=O)[*:2]].K.P.V.P.I.I.Y.C.N.R.[Dab].T.[NCC[C@@H](N[*:1])C(=O)[*:2]].K.C.[Dab].R.Y}$PEPTIDE1,PEPTIDE1,9:R3-16:R3$$$V2.0), the “Hemolysis at 0.2 g/L” value in data set [1] amounted to 0%. For the same compound, the “Escherichia coli ATCC 25922 MIC” value in data set [2] worked out at 0.0625 µg/mL. In addition, in data set [3] (MCR-1 Af 45), the “Escherichia coli MCR-1 Af 45 MIC” value came to 0.0625 µg/mL. Besides, in data set [4], the “Klebsiella pneumoniae SSI3010 MIC” value amounted to 0.125 µg/mL.

For the origin of these results see patent US20230295234A1, “ANTIMICROBIAL PEPTIDOMIMETICS” (SPEXIS AG, priority 2020, published 2023).
